Test system: snap bean gray mold fungus (Botrytis cinerea)
Assay: Test on Kidney Bean Gray Mold Control
Format: in vivo
Settings: 50 ppm active ingredient, cut Kidney bean flowers (Nagauzura) dipped, spores sprayed, placed on detached leaves, 7 days at 20° C., high humidity
Method: Now, explanation is made on how the compounds according to the present invention are effective as an active ingredient of a fungicide for controlling various plant diseases with reference to Test examples described later. In the Test Examples, the control efficacy is determined by visually checking the infested state of the test plants at the time of observation, namely, checking the damage to the host plants and the developing state of the disease-causing fungus appeared on leaves, stems, etc. of the test plants, compared to the control test plants which are healthy. Flowers of Kidney bean (variety; Nagauzura) grown in a flat vessel for culturing seedlings are cut, and the cut flowers were dipped into a solution prepared by diluting the emulsifiable concentrate prepared for the compound of the present invention at a concentration of 50 ppm based on the active ingredient. After the dipping, the flowers were dried at a room temperature. Then, spore solution of snap bean gray mold fungus (Botrytis cinerea) was sprayed to the flowers. The flowers sprayed with spores of the gray mold fungus were placed on the leaves which were detached from healthy Kidney bean plants, and those leaves were placed in a room being maintained at 20° C. and high humidity with repeated lighting of 12 hours intervals, and the Kidney bean leaves were incubated in the room for 7 days. Then, the infestation degree by the fungus on the leaves was checked in comparison to the control healthy leaves to determine the control efficacy. […] Note that the compound numbers in the following correspond to the same compound numbers in the Table 1. Compound Nos. 1, 3, 6, 7, 11, 12, 13, 14, 15, 18, 20, 21, 22, 23, 25, 26, 27, 29, 36, 48, 49, 192, 194, 195, 196, 198, 201, 203, 204, 207, 208, 209, 210, 213, 216, 219, 220, 222, 223, 224, 225, 227, 228, 229, 231, 233, 234, 235, 236, 237, 239, 240, 242

SMILES | control performance (control efficacy)
COc1cccc(OC)c1C(C)ON=Cc1cc(C)cc(C)n1 (racemic) [compound 239] | excellent control performance
COc1cccc(F)c1CON=C(C)c1cc(C)cc(C)n1 [Compound No. 1, 1-(4,6-Dimethyl-2-pyridinyl)ethanone O-[(2-Fluoro-6-methoxyphenyl)methyl]oxime] | excellent control performance
COc1cccc(C)c1CON=C(C)c1cc(C)cc(C)n1 [Compound No. 7, 1-(4,6-Dimethyl-2-pyridinyl)ethanone O-[(2-Methoxy-6-methylphenyl)methyl] Oxime] | excellent control performance
COc1ccc(CON=C(C)c2cc(C)cc(C)n2)c(OC)c1 [Compound No. 13, 1-(4,6-Dimethyl-2-pyridinyl)ethanone O-[(2,4-Dimethoxyphenyl)methyl] Oxime] | excellent control performance
COc1cccc(OC)c1CON=C(C)c1cc(Cl)cc(C)n1 [Compound No. 18, 1-(4-Chloro-6-methyl-2-pyridinyl)ethanone O-[(2,6-Dimethoxyphenyl)methyl] Oxime] | excellent control performance
CCC(=NOCc1c(OC)cccc1OC)c1cc(C)cc(C)n1 [Compound No. 20] | excellent control performance
COc1ccc(O)c(CON=C(C)c2cc(C)cc(C)n2)c1 [Compound No. 21] | excellent control performance
COc1ccc(OC)c(CON=C(C)c2cc(C)cc(C)n2)c1 [Compound No. 22] | excellent control performance
COCOc1cccc(OC)c1CON=C(C)c1cc(C)cc(C)n1 [Compound No. 23] | excellent control performance
COc1cccc(CON=C(C)c2cc(C)cc(C)n2)c1O [Compound No. 25, 1-(4,6-Dimethyl-2-pyridinyl)ethanone O-[(2-hydroxy-3-methoxyphenyl)methyl] Oxime] | excellent control performance
COc1cccc(OC)c1CON=Cc1cc(C)cc(C)n1 [Compound No. 196, 4,6-Dimethyl-2-pyridinecarboxyaldehyde O-[(2,6-Dimethoxyphenyl)methyl] Oxime] | excellent control performance
COc1cccc(OC)c1CON=Cc1cc(Cl)cc(C)n1 [Compound No. 219, 4-Chloro-6-methyl-2-pyridinecarboxyaldehyde O-[(2,6-Dimethoxyphenyl)methyl] Oxime] | excellent control performance
COc1cccc(N)c1CON=Cc1cc(C)cc(C)n1 [Compound No. 222, 4,6-Dimethyl-2-pyridinecarboxyaldehyde O-[(2-Methoxy-6-aminophenyl)methyl] Oxime] | excellent control performance
CNc1cccc(OC)c1CON=Cc1cc(C)cc(C)n1 [Compound No. 223, 4,6-Dimethyl-2-pyridinecarboxyaldehyde O-[(2-Methoxy-6-methylaminophenyl)methyl] Oxime] | excellent control performance
COc1cccc(N(C)C)c1CON=Cc1cc(C)cc(C)n1 [Compound No. 225, 4,6-dimethyl-2-pyridinecarboxyaldehyde O-[(2-methoxy-6-dimethylaminophenyl)methyl] oxime] | excellent control performance
COc1cc(OC)c(CON=Cc2cc(C)cc(C)n2)c(OC)c1 [Compound No. 233, 4,6-Dimethyl-2-pyridinecarboxyaldehyde O-[(2,4,6-Trimethoxyphenyl)methyl]oxime] | excellent control performance
COc1cccc(Br)c1CON=Cc1cc(C)cc(C)n1 [Compound No. 234, 4,6-Dimethyl-2-pyridinecarboxyaldehyde O-[(2-Methoxy-6-bromophenyl)methyl]oxime] | excellent control performance
C#Cc1cccc(OC)c1CON=Cc1cc(C)cc(C)n1 [Compound No. 235, 4,6-Dimethyl-2-pyridinecarboxyaldehyde O-[(2-Methoxy-6-ethynylphenyl)methyl]oxime] | excellent control performance
COc1ccc(Cl)c(OC)c1CON=C(C)c1cc(C)cc(C)n1 [compound 3] | excellent control performance
COCOc1cc(OC)ccc1CON=C(C)c1cc(C)cc(C)n1 [compound 6] | excellent control performance
COc1cccc(OC)c1C(C)ON=C(C)c1cc(C)cc(C)n1 (stereo not shown) [compound 11] | excellent control performance
COCOc1ccc(OC)cc1CON=C(C)c1cc(C)cc(C)n1 [compound 12] | excellent control performance
COc1ccc(CON=C(C)c2cc(C)cc(C)n2)c(O)c1 [compound 14] | excellent control performance
COc1cc(C)ccc1CON=C(C)c1cc(C)cc(C)n1 [compound 15] | excellent control performance
COc1ccc(C)cc1CON=C(C)c1cc(C)cc(C)n1 [compound 26] | excellent control performance
CCc1cccc(OC)c1CON=C(C)c1cc(C)cc(C)n1 [compound 27] | excellent control performance

SMILES | control performance (control efficacy)
COc1cccc(Cl)c1CON=C(C)c1cc(C)cc(C)n1 [compound 29] | excellent control performance
COc1cccc(C)c1CON=C(C)c1cc(C)ccn1 [compound 36] | excellent control performance
COc1ccc(F)c(OC)c1CON=Cc1cc(C)cc(C)n1 [compound 48] | excellent control performance
CC(=NOCc1ccc(C)cc1O)c1cc(C)cc(C)n1 [compound 49] | excellent control performance
COCOc1cc(C)ccc1CON=C(C)c1cc(C)cc(C)n1 [compound 192] | excellent control performance
COCOc1c(C)cccc1CON=C(C)c1cc(C)cc(C)n1 [compound 194] | excellent control performance
COc1cccc(OC)c1CON=C(C)c1cc(C)cc(C)n1 [compound 195] | excellent control performance
COc1ccc(F)c(F)c1CON=C(C)c1cc(C)cc(C)n1 [compound 198] | excellent control performance
COc1c(F)ccc(F)c1CON=C(C)c1cc(C)cc(C)n1 [compound 201] | excellent control performance
COc1cccc(C)c1CON=Cc1cc(C)cc(C)n1 [compound 203] | excellent control performance
COc1cccc(F)c1CON=Cc1cc(C)cc(C)n1 [compound 204] | excellent control performance
COc1cccc(CON=C(C)c2cc(C)cc(C)n2)c1OC(C)=O [compound 207] | excellent control performance
COc1cc(C)cc(OC)c1CON=Cc1cc(C)cc(C)n1 [compound 208] | excellent control performance
COc1cc(C)cc(OC)c1CON=C(C)c1cc(C)cc(C)n1 [compound 209] | excellent control performance
C=Cc1cccc(OC)c1CON=Cc1cc(C)cc(C)n1 [compound 210] | excellent control performance
COc1cc(Cl)cc(OC)c1CON=Cc1cc(C)cc(C)n1 [compound 213] | excellent control performance
COc1cc(F)cc(OC)c1CON=Cc1cc(C)cc(C)n1 [compound 216] | excellent control performance
COc1cccc(F)c1CON=Cc1cc(Cl)cc(C)n1 [compound 220] | excellent control performance
COc1cc(F)c(CON=Cc2cc(C)cc(C)n2)c(OC)c1 [compound 224] | excellent control performance
COc1cccc(OC(C)=O)c1CON=Cc1cc(C)cc(C)n1 [compound 227] | excellent control performance
COc1cccc(OC)c1CON=Cc1cccc(C)n1 [compound 228] | excellent control performance
COc1cccc(OC)c1CON=Cc1cc(Br)cc(C)n1 [compound 229] | excellent control performance
COc1cccc(OC)c1CON=Cc1ccccn1 [compound 231] | excellent control performance
COc1cccc(OC)c1CON=Cc1cc(C)cc(C)n1.Cl [compound 236] | excellent control performance
COCc1cccc(OC)c1CON=Cc1cc(C)cc(C)n1 [compound 237] | excellent control performance
COc1ccc(C)c(OC)c1CON=Cc1cc(C)cc(C)n1 [compound 240] | excellent control performance
